In patent US20140329275A1, “BIOCATALYSIS CELLS AND METHODS” (REGENTS OF THE UNIVERSITY OF MINNESOTA, priority 2011, published 2014):

Tests used:
KIVD = conditions: Yep et al., Bioorg. Chem. 34:325-336 (2006); cited from earlier work
IPDC = IPDC (Salmonella enterica, UniProt H9L492); conditions: ketoleucine vs ketovaline
Sequence of IPDC (H9L492 1-550): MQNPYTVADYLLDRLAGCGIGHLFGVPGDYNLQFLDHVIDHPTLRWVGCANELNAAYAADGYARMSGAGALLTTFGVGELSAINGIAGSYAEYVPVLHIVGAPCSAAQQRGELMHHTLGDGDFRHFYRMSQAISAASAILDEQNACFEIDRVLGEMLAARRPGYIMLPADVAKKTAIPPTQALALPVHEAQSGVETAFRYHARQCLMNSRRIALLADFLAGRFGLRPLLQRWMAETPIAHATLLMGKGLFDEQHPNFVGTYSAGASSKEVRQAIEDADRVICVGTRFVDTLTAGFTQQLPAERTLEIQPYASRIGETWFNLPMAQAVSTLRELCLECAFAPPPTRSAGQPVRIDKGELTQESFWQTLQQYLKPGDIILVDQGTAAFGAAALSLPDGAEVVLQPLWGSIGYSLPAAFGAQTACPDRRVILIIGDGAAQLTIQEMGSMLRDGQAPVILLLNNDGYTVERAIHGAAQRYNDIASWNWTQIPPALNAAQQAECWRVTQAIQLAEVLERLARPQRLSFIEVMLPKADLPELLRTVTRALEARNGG

Row | SMILES | Km (KIVD) | kcat of KIVD (KIVD) | specificity constant kcat/Km of IPDC, fold higher than towards ketovaline (IPDC)
1 | CC(C)C(=O)C(=O)O [ketovaline] | 2.8 mM | 48 s⁻¹ | 
2 | CC(C)CC(=O)C(=O)O [ketoleucine] | 37 mM | 49 s⁻¹ | 4 fold
